The source of these data is patent EP0428423A2, “Aryloxy alkyl benzenes, processes for their preparation and pharmaceutical compositions containing them” (LIPHA S.A., priority 1989, dated 1991).

SMILES strings stand for the structures. Like-named read-outs stand apart in the source and are kept apart here.

The target in test [1] is T1, ECHANGEUR D'ANIONS (Homo sapiens, UniProt P02730).
T1 construct: systèmes de transport du sodium et du potassium des érythrocytes humains; endogenous in cells; host or cells: human erythrocytes
T1 sequence (P02730 1-911): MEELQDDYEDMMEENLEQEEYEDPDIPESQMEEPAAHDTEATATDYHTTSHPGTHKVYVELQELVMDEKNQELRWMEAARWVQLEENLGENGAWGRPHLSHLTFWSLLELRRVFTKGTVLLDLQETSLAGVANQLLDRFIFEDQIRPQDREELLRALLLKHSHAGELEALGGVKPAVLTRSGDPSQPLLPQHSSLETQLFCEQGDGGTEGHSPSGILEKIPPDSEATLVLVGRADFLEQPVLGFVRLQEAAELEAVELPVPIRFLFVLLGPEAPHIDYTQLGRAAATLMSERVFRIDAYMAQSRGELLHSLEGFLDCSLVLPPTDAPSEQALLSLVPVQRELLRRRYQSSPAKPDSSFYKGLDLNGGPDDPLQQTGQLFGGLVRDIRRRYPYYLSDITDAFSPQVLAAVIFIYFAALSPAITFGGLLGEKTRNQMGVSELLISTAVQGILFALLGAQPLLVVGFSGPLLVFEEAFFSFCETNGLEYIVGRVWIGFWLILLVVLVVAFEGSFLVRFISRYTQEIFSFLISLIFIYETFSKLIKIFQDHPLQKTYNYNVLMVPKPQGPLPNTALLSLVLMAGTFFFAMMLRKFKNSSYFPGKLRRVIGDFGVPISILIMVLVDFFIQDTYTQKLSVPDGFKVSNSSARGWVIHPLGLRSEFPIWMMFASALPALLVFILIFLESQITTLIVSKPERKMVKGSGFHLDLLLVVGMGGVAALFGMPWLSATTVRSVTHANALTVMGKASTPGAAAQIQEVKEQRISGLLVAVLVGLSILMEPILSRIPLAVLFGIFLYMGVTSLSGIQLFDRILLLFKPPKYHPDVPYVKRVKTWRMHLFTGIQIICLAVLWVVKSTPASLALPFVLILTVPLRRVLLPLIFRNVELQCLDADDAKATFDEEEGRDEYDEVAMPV
Put plainly: Anion exchanger of human erythrocytes. The test is classed as cell-based, ERYTHROCYTES HUMAINS. The following applies: for IC50: read-out: EFFET SUR L'ECHANGEUR D'ANIONS IC 50. From the text: Cet effet a été étudié selon la méthodologie décrite par G. GARAY et coll. dans Naunyn-Schmidberg's Arch. Pharmakol. 334 (1986) 202-209 et dans Bioch. Pharm. 33 (1984) 2013-2020.

Test [2] addresses T2, COTRANSPORT Na-K (Homo sapiens, UniProt P55011).
T2 construct: systèmes de transport du sodium et du potassium des érythrocytes humains; endogenous in cells; host or cells: human erythrocytes
T2 sequence (P55011 1-1212): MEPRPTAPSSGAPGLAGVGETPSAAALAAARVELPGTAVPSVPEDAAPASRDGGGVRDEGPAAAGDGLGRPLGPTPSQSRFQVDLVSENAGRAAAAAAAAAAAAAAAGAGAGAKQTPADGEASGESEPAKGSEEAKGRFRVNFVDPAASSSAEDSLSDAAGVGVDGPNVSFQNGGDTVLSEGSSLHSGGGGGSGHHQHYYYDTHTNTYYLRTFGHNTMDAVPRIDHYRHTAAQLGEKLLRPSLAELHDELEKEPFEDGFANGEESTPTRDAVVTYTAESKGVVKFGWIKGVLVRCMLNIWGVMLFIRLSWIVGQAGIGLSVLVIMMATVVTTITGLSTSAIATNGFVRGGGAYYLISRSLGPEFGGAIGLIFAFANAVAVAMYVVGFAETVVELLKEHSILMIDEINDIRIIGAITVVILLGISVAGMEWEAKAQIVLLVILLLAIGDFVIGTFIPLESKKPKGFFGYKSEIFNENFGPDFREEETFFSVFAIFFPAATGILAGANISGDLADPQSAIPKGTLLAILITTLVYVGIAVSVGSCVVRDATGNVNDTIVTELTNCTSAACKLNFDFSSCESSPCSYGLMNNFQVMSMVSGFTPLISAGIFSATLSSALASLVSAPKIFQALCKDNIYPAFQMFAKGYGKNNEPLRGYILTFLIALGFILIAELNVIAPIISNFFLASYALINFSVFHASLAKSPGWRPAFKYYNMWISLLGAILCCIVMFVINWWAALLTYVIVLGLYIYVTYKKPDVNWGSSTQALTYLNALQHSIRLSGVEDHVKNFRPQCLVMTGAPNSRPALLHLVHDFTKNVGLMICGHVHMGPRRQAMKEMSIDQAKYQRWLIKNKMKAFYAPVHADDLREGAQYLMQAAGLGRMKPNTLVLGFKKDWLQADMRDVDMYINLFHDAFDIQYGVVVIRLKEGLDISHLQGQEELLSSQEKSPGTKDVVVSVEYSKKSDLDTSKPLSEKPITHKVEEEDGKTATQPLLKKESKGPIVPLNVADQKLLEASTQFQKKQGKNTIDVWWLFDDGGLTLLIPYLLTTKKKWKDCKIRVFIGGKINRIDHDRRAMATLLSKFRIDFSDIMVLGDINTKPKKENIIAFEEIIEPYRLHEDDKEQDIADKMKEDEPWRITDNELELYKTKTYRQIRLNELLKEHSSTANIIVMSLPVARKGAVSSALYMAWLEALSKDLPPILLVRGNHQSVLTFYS
Put plainly: Na-K cotransport of human erythrocytes. The test is classed as cell-based, ERYTHROCYTES HUMAINS. From the text:
Cet effet a été étudié selon la méthodologie décrite par G. GARAY et coll. dans Naunyn-Schmidberg's Arch. Pharmakol. […] Pharm.

Test [3] has as its system plasmas riches en plaquettes provenant de sang de rat. Put plainly: Platelet anti-aggregation in vitro, ADP-induced (Born aggregometer). The test is classed as cell-based. How it is done:
Les études ont été réalisées sur des plasmas riches en plaquettes provenant de sang de rat, l'agrégation étant induite par addition d'acide Adénosine diphosphorique. Les courbes néphélométriques d'agrégation sont obtenues en utilisant un agrégomètre de type BORN, le plasma étant placé en incubation à 37° avec agitation continue de 1100 t/mn (cf. BORN G.V.R et CROSS J. - J. Physiol. 168 (1962) 178.

Test [4] has as its system SOURIS. Put plainly: Diuretic activity in the mouse (hourly urine volume, sodium and potassium assay). The test is classed as in vivo. To be noted: for minimal effective dose: Mus musculus, po, read-out: Dose minimale active; for Pouvoir diurétique en % / Rapport Na/K en %: PO, at the dose (minimal active dose). From the text:
(§1) d'urine sont déterminés toutes les heures. Le dosage de sodium et du potassium est effectué par spectrophotométrie.

Test [5] has as its system RAT. In words: Diuretic activity in the rat (hourly urine volume, sodium and potassium assay). The test is classed as in vivo. The following applies: for minimal effective dose: po, read-out: Dose minimale active; for Pouvoir diurétique en % / Rapport Na/K en %: PO, at the dose (minimal active dose).
Text: as §1

The mark [6] stands for this setting: in vitro, aggregating agent ADP, rat platelet-rich plasma, 37°, M not defined in the text, mM printed only in the TICLOPIDINE line, read-out: M à 50.
Where [7] appears, read: human erythrocytes, read-out: EFFET SUR LE COTRANSPORT Na-K IC 50.

As to `CCCCNc1cc(C(=O)O)cc(S(N)(=O)=O)c1Oc1ccccc1` [BUMETANIDE, reference compound], the values for the IC50 in test [1] and in test [2] were 300 µM and 0.66 µM, respectively.
Take `Oc1ccccc1CCOc1ccccc1` [Ex 12]: in test [3] (setting [6]), the IC50 was 1.6 mM.
On the same count and under the same terms, the figure for `CC(C)(C)c1ccc(O)c(CCOc2ccc(F)cc2)c1` [Ex 52] is 0.75 mM.
Regarding `Cc1ccc(O)c(CCOc2ccc(F)cc2)c1` [Ex 54], the “M à 50” value in test [3] (in vitro, aggregating agent ADP, rat platelet-rich plasma, 37°, M not defined in the text, mM printed only in the TICLOPIDINE line) was “inactif”.
As for `Oc1ccccc1CCOc1cccc2ccccc12` [Ex 58], the IC50 in test [3] (setting [6]) worked out at 0.6 mM.
Still for that read-out and setting: the figure for `C=CCOc1ccc(CCOc2ccccc2)c(O)c1` [Ex 64] is 0.5 mM; for `Cc1ccc(CCOc2ccc(F)cc2)c(O)c1C` [Ex 78] it is 0.7 mM; for `CC(=O)Oc1c(CCOc2ccc(F)cc2)cccc1C(C)C` [Ex 81] it is 1 mM.
The same measure, in the same setting: the figure for `CC(C)c1ccc(O)c(CCOc2ccc(F)cc2)c1` [Ex 82] is 0.55 mM.
Same read-out and setting: the figure for `Oc1ccc(OCCc2ccccc2O)cc1` [Ex 84] is 0.75 mM.
As for `CCCc1cccc(CCOc2ccc(F)cc2)c1O` [Ex 86], in test [3] (setting [6]), the IC50 was determined as 1.55 mM.
The same measure, in the same setting: the figure for `CCOC(=O)c1ccc(OCCc2ccccc2O)cc1` [Ex 90] is 0.5 mM; for `Oc1ccc(Oc2ccccc2)cc1CCOc1ccc(F)cc1` [Ex 100] it is 1.1 mM; for `Oc1ccc(O)c(CCOc2ccc(F)cc2)c1` [Ex 102] it is 0.7 mM.
Regarding `O=C(Oc1ccccc1CCOc1ccc(F)cc1)c1cccnc1` [Ex 129], in test [3] (setting [6]), the IC50 was found to be 0.6 mM.
In the case of `Oc1cccc(CCOc2ccc(F)cc2)c1` [Ex 174], in test [3] (setting [6]), the IC50 was determined as 0.4 mM.
Turning to `Cc1cccc(C)c1NC(=O)c1cc(S(N)(=O)=O)c(Cl)cc1O` [XIPAMIDE, reference compound], the IC50 in test [1] came to 25 µM.
As for `COc1ccc(OC(C)=O)c(CCOc2ccc(F)cc2)c1` [ex 25], the minimal effective dose is 25 mg/kg in test [4] (S = SOURIS, diuretic activity) and 12 mg/kg in test [5] (R = RAT, diuretic activity). Besides, the IC50 is 120 µM in test [1] and greater than 600 µM in test [2] (setting [7]).
`COc1ccc(O)c(CCOc2ccc(Cl)cc2)c1` [ex 26]: the minimal effective dose in test [4] (S = SOURIS, diuretic activity) amounted to 100 mg/kg; in test [5] (R = RAT, diuretic activity) it was 50 mg/kg. In addition, the figures for the IC50 in test [1] and in test [2] (setting [7]) were 40 µM and 70 µM, respectively.
For the compound `Oc1ccccc1CCOc1ccc(F)cc1` [ex 30], the minimal effective dose was found to be 25 mg/kg in test [4] (S = SOURIS, diuretic activity) and 12 mg/kg in test [5] (R = RAT, diuretic activity). The values for the IC50 in test [1], in test [2] (setting [7]) and in test [3] (setting [6]) were 4 µM, 170 µM and 0.8 mM, respectively.
Take `Oc1ccc(O)c(CCOc2ccccc2)c1` [ex 42]: the “Pouvoir diurétique en %” value in test [4] (S = SOURIS) is listed as “Inactif”. Besides, the “Rapport Na/K en %” value in test [4] (S = SOURIS) is on record as “Inactif”. The IC50 in test [1] turned out to be 12 µM; in test [2] (setting [7]) it was 40 µM; in test [3] (setting [6]) it was 1.2 mM. Besides, the minimal effective dose in test [5] (R = RAT, diuretic activity) amounted to 12 mg/kg.
As for `Oc1c(CCOc2ccc(F)cc2)ccc2ccccc12` [ex 46], the “Pouvoir diurétique en %” value in test [4] (S = SOURIS) and in test [5] (R = RAT) was “R : Inactif S : Inactif” in each case. Besides, the “Rapport Na/K en %” value in test [4] (S = SOURIS) and in test [5] (R = RAT) was “R : Inactif S : Inactif” throughout. Also, the IC50 in test [1] was found to be 200 µM; in test [2] (setting [7]) it was 95 µM.
Take `Oc1ccc2ccccc2c1CCOc1ccc(F)cc1` [ex 48]: the minimal effective dose stood at 100 mg/kg in test [4] (S = SOURIS, diuretic activity) and 25 mg/kg in test [5] (R = RAT, diuretic activity).
In the case of `Oc1ccccc1CCOc1ccc2ccccc2c1` [ex 56], the “Pouvoir diurétique en %” value in test [4] (S = SOURIS) and in test [5] (R = RAT) was “R : Inactif S : Inactif” in each case. The “Rapport Na/K en %” value in test [4] (S = SOURIS) and in test [5] (R = RAT) was “R : Inactif S : Inactif” in each case. The IC50 in test [1] stood at 200 µM; in test [2] (setting [7]), 95 µM; in test [3] (setting [6]), 0.3 mM.
`Oc1cc2c(cc1CCOc1ccc(F)cc1)OCCO2` [ex 107]: the minimal effective dose in test [4] (S = SOURIS, diuretic activity) was 100 mg/kg; in test [5] (R = RAT, diuretic activity) it was 25 mg/kg.
For `O=P(O)(O)Oc1ccccc1CCOc1ccc(F)cc1` [ex 134], the minimal effective dose in test [4] was found to be 25 mg/kg; in test [5] (Rattus norvegicus), 6 mg/kg. For the same compound, the “EFFET SUR L'ECHANGEUR D'ANIONS IC 50” value in test [1] is recorded as “Non actif”. In addition, the “EFFET SUR LE COTRANSPORT Na-K IC 50” value in test [2] (human erythrocytes) was “Non actif”. Besides, the IC50 in test [3] (Rattus norvegicus, Platelet, read-out: M à 50) turned out to be 1.3 mM; in test [3] (Rattus norvegicus, Platelet, read-out: V à 50), 1.5 mM.
For the compound `CC(=O)NCCCCCC(=O)Oc1ccccc1CCOc1ccc(F)cc1` [ex 139], the minimal effective dose came to 25 mg/kg in test [4] (S = SOURIS, diuretic activity) and 25 mg/kg in test [5] (R = RAT, diuretic activity).
For `NC(=O)c1ccc(O)c(CCOc2ccc(F)cc2)c1` [ex 163], the minimal effective dose amounted to 25 mg/kg in test [4] (S = SOURIS, diuretic activity) and 6 mg/kg in test [5] (R = RAT, diuretic activity).
Consider `CC(COc1ccc(F)cc1)c1ccccc1O` (stereo not drawn) [ex 172], for which the minimal effective dose in test [4] (S = SOURIS, diuretic activity) was found to be 100 mg/kg; in test [5] (R = RAT, diuretic activity) it was 25 mg/kg. Also, the IC50 was 75 µM in test [1], roughly 400 µM in test [2] (setting [7]) and 0.95 mM in test [3] (setting [6]).
